In brackets after ≈: the same amount, converted by molar mass. Activity calls are given as the source filed them. No cut-off for these calls is given here.
Tests used:
[1] = target: T1, Androgen receptor (Homo sapiens) (UniProt P10275); test: Agonist activity at human androgen receptor expressed in mouse C2C12 cells by androgen-specific response element-driven luciferase reporter gene assay relative to DHT; assay type: cell-based
T1 sequence (whole entry): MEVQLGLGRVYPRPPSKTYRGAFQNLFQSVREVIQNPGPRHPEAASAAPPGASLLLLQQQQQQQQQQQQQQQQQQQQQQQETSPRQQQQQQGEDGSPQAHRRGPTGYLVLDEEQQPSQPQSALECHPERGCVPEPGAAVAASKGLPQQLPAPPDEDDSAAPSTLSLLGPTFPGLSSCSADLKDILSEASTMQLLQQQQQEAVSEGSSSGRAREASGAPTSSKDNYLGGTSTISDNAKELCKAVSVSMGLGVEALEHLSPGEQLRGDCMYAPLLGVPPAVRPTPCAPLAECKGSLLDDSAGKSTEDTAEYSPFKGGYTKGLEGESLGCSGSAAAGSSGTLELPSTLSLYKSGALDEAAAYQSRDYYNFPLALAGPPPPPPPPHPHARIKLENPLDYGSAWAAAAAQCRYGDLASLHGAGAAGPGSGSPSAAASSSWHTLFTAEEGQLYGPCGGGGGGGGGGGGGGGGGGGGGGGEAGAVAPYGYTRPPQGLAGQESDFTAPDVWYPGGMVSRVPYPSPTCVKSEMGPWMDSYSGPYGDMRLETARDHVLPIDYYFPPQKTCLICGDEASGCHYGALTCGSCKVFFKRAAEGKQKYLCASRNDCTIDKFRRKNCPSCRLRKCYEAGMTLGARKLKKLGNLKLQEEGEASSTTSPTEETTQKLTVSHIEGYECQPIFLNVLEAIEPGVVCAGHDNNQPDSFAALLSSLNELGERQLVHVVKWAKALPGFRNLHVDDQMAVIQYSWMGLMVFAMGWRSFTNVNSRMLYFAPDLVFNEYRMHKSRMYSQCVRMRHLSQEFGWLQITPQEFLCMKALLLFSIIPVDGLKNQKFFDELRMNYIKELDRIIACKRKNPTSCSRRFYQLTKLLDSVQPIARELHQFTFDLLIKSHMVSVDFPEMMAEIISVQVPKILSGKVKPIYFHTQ

Androgen receptor [2] = target: T2, Androgen receptor (Homo sapiens, UniProt P10275)
T2 sequence (P10275 whole entry): T1 sequence (whole entry)

[3] = Thermodynamic solubility of the compound at pH 7.4; assay type: physicochemical; conditions: buffer, read-out: Therm_solubility
Zone of skin = test: Skin permeability in human cadaver skin in Franz diffusion cell system; assay type: ADME
[4] = Lipophilicity, logP of the compound; assay type: physicochemical; conditions: octanol/water
[5] = Skin drug retention by silicone and isopropyl myristate (70:30) containing artificial membranes based skin PAMPA method
[6] = Skin permeability by silicone and isopropyl myristate (70:30) containing artificial membranes based skin PAMPA method; assay type: ADME
Glucocorticoid receptor = target: T3, Glucocorticoid receptor (Homo sapiens, UniProt P04150); test: Binding affinity to glucocorticoid receptor (unknown origin) incubated for 4 hrs
T3 sequence (P04150 whole entry): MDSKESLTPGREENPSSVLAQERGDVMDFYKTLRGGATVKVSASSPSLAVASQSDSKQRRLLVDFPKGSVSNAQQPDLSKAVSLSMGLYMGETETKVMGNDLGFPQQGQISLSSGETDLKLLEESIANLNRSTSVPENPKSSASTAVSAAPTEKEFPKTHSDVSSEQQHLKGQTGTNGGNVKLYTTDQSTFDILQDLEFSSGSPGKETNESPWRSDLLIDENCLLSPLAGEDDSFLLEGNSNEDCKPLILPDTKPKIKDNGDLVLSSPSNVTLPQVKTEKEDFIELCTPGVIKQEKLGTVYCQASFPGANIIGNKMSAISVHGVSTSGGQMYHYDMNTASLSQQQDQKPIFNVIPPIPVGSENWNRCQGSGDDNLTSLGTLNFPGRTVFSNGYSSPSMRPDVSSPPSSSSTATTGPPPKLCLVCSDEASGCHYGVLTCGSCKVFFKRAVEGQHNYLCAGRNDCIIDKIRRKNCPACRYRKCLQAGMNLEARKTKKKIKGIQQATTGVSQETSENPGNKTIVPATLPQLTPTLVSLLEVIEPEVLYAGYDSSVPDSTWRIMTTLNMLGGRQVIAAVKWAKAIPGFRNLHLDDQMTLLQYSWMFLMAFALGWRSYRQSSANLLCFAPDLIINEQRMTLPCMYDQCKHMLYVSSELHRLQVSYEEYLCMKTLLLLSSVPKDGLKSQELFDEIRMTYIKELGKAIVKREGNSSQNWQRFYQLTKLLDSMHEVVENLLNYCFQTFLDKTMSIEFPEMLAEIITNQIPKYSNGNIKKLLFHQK

Rattus norvegicus [7] = test: Androgenic activity in orchidectomized rat assessed as stimulation of prostate weight treated subcutaneously once daily for 14 days by Hershberger assay; assay type: organism-based; conditions: Prostate gland, sc, 336 h
[8] = Terminal half life in Wistar rat at 1 mg/kg, iv; assay type: ADME, organism-based; design: dose 1 mg/kg, route intravenous; conditions: in vivo, read-out: beta t1/2 (converted)
Rattus norvegicus [9] = test: AUC (0 to 48 hrs) in Wistar rat at 0.5 mg/kg, sc; assay type: ADME, organism-based, Plasma; design: time < 48 hr, dose 0.5 mg/kg, route subcutaneous; conditions: in vivo
[10] = Tmax in Wistar rat at 0.5 mg/kg, sc; assay type: ADME, organism-based; design: dose 0.5 mg/kg, route subcutaneous; conditions: in vivo
Androgen receptor [11] = target: T2, Androgen receptor; test: Displacement of [3H]DHT from androgen receptor in human MDA-MB-435 cells after 30 mins; assay type: cell-based
Progesterone receptor = target: T4, Progesterone receptor (Homo sapiens, UniProt P06401); test: Binding affinity to progesterone receptor (unknown origin) incubated for 4 hrs
T4 sequence (P06401 whole entry): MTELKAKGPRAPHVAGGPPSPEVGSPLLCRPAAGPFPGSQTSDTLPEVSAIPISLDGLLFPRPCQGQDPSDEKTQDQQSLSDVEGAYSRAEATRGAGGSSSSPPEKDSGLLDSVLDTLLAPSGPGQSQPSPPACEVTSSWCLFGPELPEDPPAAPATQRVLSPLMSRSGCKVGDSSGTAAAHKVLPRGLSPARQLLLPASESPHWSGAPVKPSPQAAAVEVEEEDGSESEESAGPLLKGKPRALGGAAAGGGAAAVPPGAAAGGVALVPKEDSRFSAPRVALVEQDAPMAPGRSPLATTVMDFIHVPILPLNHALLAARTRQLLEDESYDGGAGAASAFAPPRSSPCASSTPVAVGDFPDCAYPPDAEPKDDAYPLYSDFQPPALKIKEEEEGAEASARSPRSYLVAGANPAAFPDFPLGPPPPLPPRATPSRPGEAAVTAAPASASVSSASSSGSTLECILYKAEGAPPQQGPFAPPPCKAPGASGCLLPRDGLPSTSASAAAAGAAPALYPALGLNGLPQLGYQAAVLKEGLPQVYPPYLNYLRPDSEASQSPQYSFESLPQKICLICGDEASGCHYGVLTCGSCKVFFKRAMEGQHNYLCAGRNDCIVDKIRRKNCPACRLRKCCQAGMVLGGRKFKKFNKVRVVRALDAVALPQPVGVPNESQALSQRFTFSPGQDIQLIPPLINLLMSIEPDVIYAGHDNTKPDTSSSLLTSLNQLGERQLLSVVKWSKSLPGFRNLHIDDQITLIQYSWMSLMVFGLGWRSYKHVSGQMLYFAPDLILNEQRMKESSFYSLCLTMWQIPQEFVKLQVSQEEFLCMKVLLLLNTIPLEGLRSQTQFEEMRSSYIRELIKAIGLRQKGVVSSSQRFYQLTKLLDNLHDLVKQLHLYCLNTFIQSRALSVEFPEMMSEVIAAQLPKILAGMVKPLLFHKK

Estrogen receptor = target: T5, Estrogen receptor (Homo sapiens, UniProt P03372); test: Binding affinity to estrogen receptor (unknown origin) incubated for 4 hrs
T5 sequence (P03372 whole entry): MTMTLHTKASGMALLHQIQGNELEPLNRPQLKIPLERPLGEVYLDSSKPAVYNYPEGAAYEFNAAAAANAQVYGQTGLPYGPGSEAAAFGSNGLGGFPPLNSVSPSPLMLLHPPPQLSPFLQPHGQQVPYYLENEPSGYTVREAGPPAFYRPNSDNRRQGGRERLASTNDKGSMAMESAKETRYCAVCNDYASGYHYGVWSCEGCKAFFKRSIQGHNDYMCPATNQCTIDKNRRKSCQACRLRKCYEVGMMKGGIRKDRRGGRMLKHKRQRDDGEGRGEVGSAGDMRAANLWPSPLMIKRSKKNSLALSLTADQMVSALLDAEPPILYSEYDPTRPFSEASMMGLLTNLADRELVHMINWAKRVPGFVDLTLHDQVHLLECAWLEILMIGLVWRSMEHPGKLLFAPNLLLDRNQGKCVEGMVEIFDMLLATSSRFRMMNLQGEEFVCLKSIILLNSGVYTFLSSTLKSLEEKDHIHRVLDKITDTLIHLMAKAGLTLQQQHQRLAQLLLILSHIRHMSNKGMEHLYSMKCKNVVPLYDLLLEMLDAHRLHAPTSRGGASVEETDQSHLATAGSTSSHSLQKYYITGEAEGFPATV

[12] = Volume of distribution in Wistar rat at 1 mg/kg, iv; assay type: ADME, organism-based; design: dose 1 mg/kg, route intravenous; conditions: in vivo
Rattus norvegicus [13] = test: Bioavailability in Wistar rat at 0.5 mg/kg, sc; assay type: ADME, organism-based; conditions: in vivo
Rattus norvegicus [14] = test: Androgenic activity in orchidectomized rat assessed as stimulation of prostate weight treated at 0.3 mg/kg, sc once daily for 14 days by Hershberger assay; assay type: organism-based, Prostate gland; design: dose 0.3 mg/kg, route subcutaneous; conditions: in vivo, 336 h
[15] = Cmax in Wistar rat at 0.5 mg/kg, sc; assay type: ADME, organism-based; design: dose 0.5 mg/kg, route subcutaneous; conditions: in vivo
[16] = AUC (0 to infinity) in Wistar rat at 1 mg/kg, iv; assay type: ADME, organism-based; design: dose 1 mg/kg, route intravenous, time infinity; conditions: plasma
Rattus norvegicus [17] = test: Anabolic activity in orchidectomized rat assessed as stimulation of bulbocavernosus/levator ani muscle weight treated at 0.3 mg/kg, sc once daily for 14 days by Hershberger assay; assay type: functional, organism-based; design: dose 0.3 mg/kg
Rattus norvegicus [18] = test: Anabolic activity in orchidectomized rat assessed as stimulation of bulbocavernosus/levator ani muscle weight treated subcutaneously once daily for 14 days by Hershberger assay; assay type: functional

CO[C@@H]1C(c2ccc(C#N)c(Cl)c2C)=NN2C[C@H](O)C[C@@H]12
Emax [1]: 75% | EC50 (Androgen receptor [2]): 9.7 nM

CO[C@@H]1C(c2ccc(C#N)c(Cl)c2C)=NN2CC[C@@H](O)[C@@H]12
Emax [1]: 86.7% | solubility thermodynamic [3]: 250 µg/mL (≈ 818 µM) | Jss (Zone of skin): 0.2 ug/cm2.hr | EC50 (Androgen receptor [2]): 0.4 nM | logP [4]: 1.9

CO[C@@H]1C(c2ccc(C#N)c(Cl)c2C)=NN2CC(=O)C[C@@H]12
Emax [1]: 93% | EC50 (Androgen receptor [2]): 26 nM

CO[C@@H]1C(c2ccc(C#N)c(Cl)c2C)=NN2CC(F)(F)C[C@@H]12
Emax [1]: 100% | solubility thermodynamic [3]: 10 µg/mL (≈ 30.7 µM) | Jss (Zone of skin): 0.06 ug/cm2.hr | Drug uptake [5]: Active | EC50 (Androgen receptor [2]): 0.3 nM | permeability [6]: permeable | logP [4]: 3.2

CO[C@H]1CCN2N=C(c3ccc(C#N)c(Cl)c3C)[C@@H](OC)[C@H]12
Emax [1]: 82%

COCCO[C@@H]1C(c2ccc(C#N)c(Cl)c2C)=NN2CC[C@H](O)[C@@H]12
Emax [1]: 82% | solubility thermodynamic [3]: 2300 µg/mL (≈ 6570 µM) | Jss (Zone of skin): 1.1 ug/cm2.hr | logP [4]: 2

C[C@]12CC[C@H]3[C@@H](CCC4=CC(=O)CC[C@@]43C)[C@@H]1CC[C@@H]2O [TESTOSTERONE]
solubility thermodynamic [3]: 40 µg/mL (≈ 139 µM) | Jss (Zone of skin): 0.19 ug/cm2.hr | Drug uptake [5]: inactive | permeability [6]: permeable

CO[C@@H]1C(c2ccc(C#N)c(Cl)c2C)=NN2CC[C@H](O)[C@@H]12
IC50 (Glucocorticoid receptor): > 1000 nM | Emax [1]: 97% | ED50 (Rattus norvegicus [7]): 2.73 mg/kg | half-life [8]: 5.7 h | AUC (Rattus norvegicus [9]): 670 ng·h/mL | Tmax [10]: 1.5 h | solubility thermodynamic [3]: 1300 µg/mL (≈ 4250 µM) | IC50 (Androgen receptor [11]): 0.7 nM | IC50 (Progesterone receptor): 700 nM | IC50 (Estrogen receptor): > 1000 nM | Jss (Zone of skin): 2 ug/cm2.hr | Vd [12]: 4.6 L/kg | Drug uptake [5]: inactive | F (Rattus norvegicus [13]): 75% | Activity (Rattus norvegicus [14]): Non-toxic | Cmax [15]: 79 ng/mL | permeability [6]: permeable | AUC(0-inf) [16]: 708 ng·h/mL | logP [4]: 2 | Activity (Rattus norvegicus [17]): Active | Activity (Rattus norvegicus [18]): Dose-dependent effect | ED50 (Rattus norvegicus [18]; sc, 336 h): 0.07 mg/kg

Source: ChEMBL document CHEMBL3351728, “3-alkoxy-pyrrolo[1,2-b]pyrazolines as selective androgen receptor modulators with ideal physicochemical properties for transdermal administration” (J Med Chem, 2014)
